Results reported in ChEMBL document CHEMBL3885861, “Open TG-GATES”.

Organism: Rattus norvegicus
Experiment: Open TG-GATES - Regimen: Single
Format: toxicity, organism-based, Sprague-Dawley
Design: regimen Single, gender Male, age 6 weeks
Details: in vivo, po, 10 mg/kg, route gavage, dose level Low; for APTT / Bas / Eos / Fbg / Hb / Ht / Lym / MCH / MCHC / MCV / Mono / Neu / PT / Plat / RBC / Ret / WBC: tissue Blood; for KIDNEY_L / KIDNEY_R / KIDNEY_TOTAL: tissue Kidney; for LIVER: tissue Liver; for A/G / ALP / ALT / AST / BUN / CRE / Ca / Cl / DBIL / GLC / IP / K / LDH / Na / PL / RALB / TBIL / TC / TG / TP / gamma-GTP: tissue Plasma

## CN(C)CCN(Cc1cccs1)c1ccccn1
3 h
  TERMINAL_BW: 185 g
  APTT: 20.7 s
  Bas: 0%
  Eos: 0.6%
  Fbg: 285 mg/dL
  Hb: 13.4 g/dL
  Ht: 40.7%
  Lym: 79.6%
  MCH: 21.2 pg
  MCHC: 32.9%
  MCV: 64.6 fL
  Mono: 2%
  Neu: 17.2%
  PT: 16.4 s
  Plat: 111.1 x10_4/uL
  RBC: 630.4 x10_4/ul
  Ret: 7.5%
  WBC: 82 x10_2/uL
  KIDNEY_L: 0.8 g
  KIDNEY_R: 0.8 g
  KIDNEY_TOTAL: 1.6 g
  LIVER: 8.1 g
  A/G: 1.3
  ALP: 1664.4 IU/L
  ALT: 41.2 IU/L
  AST: 77.8 IU/L
  BUN: 13.6 mg/dL
  CRE: 0.2 mg/dL
  Ca: 10.5 mg/dL
  Cl: 107.6 meq/L
  DBIL: 0.002 mg/dL
  GLC: 171.6 mg/dL
  IP: 8 mg/dL
  K: 4.2 meq/L
  LDH: 205.8 IU/L
  Na: 144 meq/L
  PL: 125.4 mg/dL
  RALB: 3 g/dL
  TBIL: 0.014 mg/dL
  TC: 67.8 mg/dL
  TG: 43.2 mg/dL
  TP: 5.3 g/dL
  gamma-GTP: 1.2 IU/L
6 h
  TERMINAL_BW: 188.4 g
  APTT: 20.6 s
  Bas: 0%
  Eos: 0.6%
  Fbg: 294.6 mg/dL
  Hb: 12.7 g/dL
  Ht: 39%
  Lym: 77.8%
  MCH: 21.3 pg
  MCHC: 32.6%
  MCV: 65.3 fL
  Mono: 2.2%
  Neu: 18.6%
  PT: 17.1 s
  Plat: 119.7 x10_4/uL
  RBC: 597.6 x10_4/ul
  Ret: 7.6%
  WBC: 70.2 x10_2/uL
  KIDNEY_L: 0.9 g
  KIDNEY_R: 0.9 g
  KIDNEY_TOTAL: 1.9 g
  LIVER: 8.2 g
  A/G: 1.3
  ALP: 1485.8 IU/L
  ALT: 37.6 IU/L
  AST: 70.2 IU/L
  BUN: 10.8 mg/dL
  CRE: 0.1 mg/dL
  Ca: 10.3 mg/dL
  Cl: 106.6 meq/L
  DBIL: 0.002 mg/dL
  GLC: 171.6 mg/dL
  IP: 9.6 mg/dL
  K: 4.4 meq/L
  LDH: 202.4 IU/L
  Na: 141.6 meq/L
  PL: 124 mg/dL
  RALB: 2.9 g/dL
  TBIL: 0.016 mg/dL
  TC: 70.6 mg/dL
  TG: 63.6 mg/dL
  TP: 5.3 g/dL
  gamma-GTP: 1 IU/L
9 h
  TERMINAL_BW: 182.3 g
  APTT: 20.7 s
  Bas: 0%
  Eos: 0.4%
  Fbg: 314.8 mg/dL
  Hb: 12.9 g/dL
  Ht: 38.8%
  Lym: 77.4%
  MCH: 20.8 pg
  MCHC: 33.3%
  MCV: 62.5 fL
  Mono: 2.2%
  Neu: 19.4%
  PT: 15.9 s
  Plat: 114.9 x10_4/uL
  RBC: 621.8 x10_4/ul
  Ret: 7.4%
  WBC: 62 x10_2/uL
  KIDNEY_L: 0.8 g
  KIDNEY_R: 0.9 g
  KIDNEY_TOTAL: 1.7 g
  LIVER: 7.8 g
  A/G: 1.2
  ALP: 1429.4 IU/L
  ALT: 30.2 IU/L
  AST: 62.8 IU/L
  BUN: 11.2 mg/dL
  CRE: 0.1 mg/dL
  Ca: 10.4 mg/dL
  Cl: 106.4 meq/L
  DBIL: 0 mg/dL
  GLC: 171 mg/dL
  IP: 9.6 mg/dL
  K: 4.2 meq/L
  LDH: 171 IU/L
  Na: 142.4 meq/L
  PL: 129 mg/dL
  RALB: 3 g/dL
  TBIL: 0.018 mg/dL
  TC: 67.2 mg/dL
  TG: 69.2 mg/dL
  TP: 5.4 g/dL
  gamma-GTP: 1 IU/L
24 h
  TERMINAL_BW: 197.6 g
  APTT: 19.8 s
  Bas: 0%
  Eos: 0.5%
  Fbg: 282.8 mg/dL
  Hb: 12.7 g/dL
  Ht: 38.4%
  Lym: 80.5%
  MCH: 21.8 pg
  MCHC: 33.1%
  MCV: 65.8 fL
  Mono: 1.8%
  Neu: 16.8%
  PT: 16.6 s
  Plat: 114.6 x10_4/uL
  RBC: 584 x10_4/ul
  Ret: 7.2%
  WBC: 94 x10_2/uL
  KIDNEY_L: 0.9 g
  KIDNEY_R: 0.9 g
  KIDNEY_TOTAL: 1.7 g
  LIVER: 9.3 g
  A/G: 1.2
  ALP: 1858.2 IU/L
  ALT: 42.2 IU/L
  AST: 69.6 IU/L
  BUN: 16.4 mg/dL
  CRE: 0.2 mg/dL
  Ca: 10.7 mg/dL
  Cl: 107.4 meq/L
  DBIL: 0.002 mg/dL
  GLC: 180.6 mg/dL
  IP: 7.3 mg/dL
  K: 4.3 meq/L
  LDH: 223.2 IU/L
  Na: 142.8 meq/L
  PL: 145.4 mg/dL
  RALB: 2.9 g/dL
  TBIL: 0.008 mg/dL
  TC: 75.2 mg/dL
  TG: 131.8 mg/dL
  TP: 5.3 g/dL
  gamma-GTP: 1 IU/L
